Source: patent publication US20250340560A1, “SUBSTITUTED PYRAZOLO[1,5-a]PYRIMIDINES AS BRUTON'S TYROSINE KINASE MODULATORS” (BEIGENE SWITZERLAND GMBH, priority 2013, published 2025)
Counter-ions that a name gives are not always drawn.

target: Recombinant Btk (Homo sapiens (Human), UniProt Q06187); test: BTK kinase assay (TR-FRET); conditions: read-out: IC50 (nM) Btk; 1 hour pre-incubation, ATP at Km
Sequence (Q06187 whole entry): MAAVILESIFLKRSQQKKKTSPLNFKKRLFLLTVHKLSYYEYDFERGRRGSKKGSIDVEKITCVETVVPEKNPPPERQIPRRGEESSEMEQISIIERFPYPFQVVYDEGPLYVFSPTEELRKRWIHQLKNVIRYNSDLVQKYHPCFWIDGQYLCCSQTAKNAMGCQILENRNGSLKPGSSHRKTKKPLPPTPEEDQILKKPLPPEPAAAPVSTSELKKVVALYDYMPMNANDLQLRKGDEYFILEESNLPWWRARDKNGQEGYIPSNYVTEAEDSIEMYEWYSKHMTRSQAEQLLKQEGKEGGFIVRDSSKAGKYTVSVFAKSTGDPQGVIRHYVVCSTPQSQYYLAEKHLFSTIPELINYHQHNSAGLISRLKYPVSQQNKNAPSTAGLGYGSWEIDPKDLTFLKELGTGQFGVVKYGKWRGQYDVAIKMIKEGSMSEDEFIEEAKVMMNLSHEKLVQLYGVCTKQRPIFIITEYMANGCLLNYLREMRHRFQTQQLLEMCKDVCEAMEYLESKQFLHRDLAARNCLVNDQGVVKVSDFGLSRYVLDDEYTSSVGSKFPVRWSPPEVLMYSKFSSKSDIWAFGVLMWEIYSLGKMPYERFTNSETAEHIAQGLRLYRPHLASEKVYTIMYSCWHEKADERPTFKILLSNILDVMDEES

SMILES | IC50
NC(=O)c1c(-c2ccc(Oc3ccccc3)cc2)nn2c1NCC21CCNCC1 [Compound 39, 6-(4-Phenoxyphenyl)-1,2-dihydrospiro[imidazo[1,2-b]pyrazole-3,4′-piperidine]-7-carboxamide] | 1400 nM
C=CC(=O)N1CCc2[nH]c3c(C(N)=O)c(-c4ccc(OCc5ccccc5)cc4)nn3c2C1 [Compound 126, 7-Acryloyl-2-(4-(benzyloxy)phenyl)-5,6,7,8-tetrahydro-4H-pyrazolo[5′,1′:2,3]imidazo[4,5-c]pyridine-3-carboxamide] | 20 nM
NC(=O)c1c(-c2ccc(Oc3ccccc3)cc2)nn2c1NCCC2c1ccncc1 (centres unmarked) [Compound 100, 2-(4-phenoxyphenyl)-7-(pyridin-4-yl)-4,5,6,7-tetrahydropyrazolo[1,5-a]pyrimidine-3-carboxamide] | 260 nM
C=CC(=O)NCC1CCNc2c(C(N)=O)c(-c3ccc(OCC4CC4)cc3)nn21 (centres unmarked) [Compound 113, 7-(acrylamidomethyl)-2-(4-(cyclopropylmethoxy)phenyl)-4,5,6,7-tetrahydropyrazolo[1,5-a]pyrimidine-3-carboxamide] | 94 nM
C=CC(=O)Nc1ccccc1C1CCNc2c(C(N)=O)c(-c3cccc(Cl)c3)nn21 (centres unmarked) [Compound 155, 7-(2-Acrylamidophenyl)-2-(3-chlorophenyl)-4,5,6,7-tetrahydropyrazolo[1,5-a]pyrimidine-3-carboxamide] | 0.96 nM
NC(=O)c1c(-c2ccc(Oc3ccccc3)cc2)nn2c(C3CCNCC3)cc(=O)[nH]c12 [Compound 80, 5-Oxo-2-(4-phenoxyphenyl)-7-(piperidin-4-yl)-4,5-dihydropyrazolo[1,5-a]pyrimidine-3-carboxamide] | > 10000 nM
C=CC(=O)Nc1cc(C2CCNc3c(C(N)=O)c(-c4ccc(Oc5ccccc5)cc4)nn32)ccc1Cl (centres unmarked) [Compound 97, 7-(3-acrylamido-4-chlorophenyl)-2-(4-phenoxyphenyl)-4,5,6,7-tetrahydropyrazolo[1,5-a]pyrimidine-3-carboxamide] | 1.1 nM
CNc1ccccc1C1CCNc2c(C(N)=O)c(-c3ccc(Oc4ccc(F)cc4)cc3)nn21 (centres unmarked) [Compound 15, 2-(4-(4-Fluorophenoxy)phenyl)-7-(2-(methylamino)phenyl)-4,5,6,7-tetrahydropyrazolo[1,5-a]pyrimidine-3-carboxamide] | 2700 nM
NC(=O)c1c(-c2ccc(Oc3ccccc3)cc2)nn2c1NCC1(CNC1)C2 [Compound 87, 2′-(4-Phenoxyphenyl)-5′,7′-dihydro-4′H-spiro[azetidine-3,6′-pyrazolo[1,5-a]pyrimidine]-3′-carboxamide] | 2000 nM
NC(=O)c1c(-c2ccc(Oc3ccccc3)cc2)nn2c1NCCc1cc(N)ccc1-2 [Compound 71, 8-Amino-2-(4-phenoxyphenyl)-5,6-dihydro-4H-benzo[f]pyrazolo[1,5-a][1,3]diazepine-3-carboxamide] | 55 nM
C=CC(=O)NCC1CCNc2c(C(N)=O)c(-c3ccc(OCc4ccccc4)cc3)nn21 (centres unmarked) [Compound 111, 7-(acrylamidomethyl)-2-(4-(benzyloxy)phenyl)-4,5,6,7-tetrahydropyrazolo[1,5-a]pyrimidine-3-carboxamide] | 24 nM
NC(=O)c1c(-c2ccc(Oc3ccccc3)cc2)nn2c1NCC[C@H]2C1CCN(C(=O)C#CCO)CC1 [Compound 191, (S)-7-(1-(4-Hydroxybut-2-ynoyl)piperidin-4-yl)-2-(4-phenoxyphenyl)-4,5,6,7-tetrahydropyrazolo[1,5-a]pyrimidine-3-carboxamide] | 0.67 nM
NC(=O)c1c(-c2ccc(Oc3ccccc3)cc2)nn2c3c([nH]c12)CCNCC3 [Compound 120] | 180 nM
NC(=O)c1c(-c2ccc(Oc3ccccc3)cc2)nn2c(-c3cccc(N)c3)c[nH]c12 [Compound 49, 3-(3-Aminophenyl)-6-(4-phenoxyphenyl)-1H-pyrazolo[1,5-a]imidazole-7-carboxamide] | 29 nM
C=CC(=O)N1CCC2(CCNc3c(C(N)=O)c(-c4ccc(Oc5ccccc5)cc4)nn32)CC1 [Compound 43, 1-Acryloyl-2′-(4-phenoxyphenyl)-5′,6′-dihydro-4′H-spiro[piperidine-4,7′-pyrazolo[1,5-a]pyrimidine]-3′-carboxamide] | 3 nM
C=CC(=O)Nc1ccc(Cl)c(C2CCNc3c(C(N)=O)c(-c4ccc(Oc5ccccc5)cc4)nn32)c1 (centres unmarked) [Compound 96, 7-(5-acrylamido-2-chlorophenyl)-2-(4-phenoxyphenyl)-4,5,6,7-tetrahydropyrazolo[1,5-a]pyrimidine-3-carboxamide] | 30 nM
NC(=O)c1c(-c2ccc(Oc3ccccc3)cc2)nn2c1NCC(c1ccccc1N)C2 (centres unmarked) [Compound 89, 6-(2-Aminophenyl)-2-(4-phenoxyphenyl)-4,5,6,7-tetrahydropyrazolo[1,5-a]pyrimidine-3-carboxamide] | > 10000 nM
NCC1CCNc2c(C(N)=O)c(-c3ccc(OCC4CC4)cc3)nn21 (centres unmarked) [Compound 112, 7-(aminomethyl)-2-(4-(cyclopropylmethoxy)phenyl)-4,5,6,7-tetrahydropyrazolo[1,5-a]pyrimidine-3-carboxamide] | > 10000 nM

SMILES | IC50
C=CC(=O)NC1CNc2c(C(N)=O)c(-c3ccc(Oc4ccccc4)cc3)nn2C1 (centres unmarked) [Compound 85, 6-Acrylamido-2-(4-phenoxyphenyl)-4,5,6,7-tetrahydropyrazolo[1,5-a]pyrimidine-3-carboxamide] | 32 nM
C=CC(=O)N1CC2(CNc3c(C(N)=O)c(-c4ccc(Oc5ccccc5)cc4)nn32)C1 [Compound 46, 1-Acryloyl-6′-(4-phenoxyphenyl)-1′,2′-dihydrospiro[azetidine-3,3′-imidazo[1,2-b]pyrazole]-7′-carboxamide] | 5 nM
NC(=O)c1c(-c2ccc(Oc3ccccc3)cc2)nn2c1NCCC2C1CCN(C(=O)/C=C/CN2CCCCC2)CC1 (centres unmarked) [Compound 170, (E)-2-(4-Phenoxyphenyl)-7-(1-(4-(piperidin-1-yl)but-2-enoyl)piperidin-4-yl)-4,5,6,7-tetrahydropyrazolo[1,5-a]pyrimidine-3-carboxamide] | 3.8 nM
C=CC(=O)Nc1ccccc1C1CCNc2c(C(N)=O)c(-c3ccc(F)c(C)c3)nn21 (centres unmarked) [Compound 157, 7-(2-Acrylamidophenyl)-2-(4-fluoro-3-methylphenyl)-4,5,6,7-tetrahydropyrazolo[1,5-a]pyrimidine-3-carboxamide] | 0.38 nM
C=CC(=O)Nc1ccccc1C1CCNc2c(C(N)=O)c(-c3ccccc3)nn21 (centres unmarked) [Compound 150, 7-(2-Acrylamidophenyl)-2-phenyl-4,5,6,7-tetrahydropyrazolo[1,5-a]pyrimidine-3-carboxamide] | 4.7 nM
NC(=O)c1c(-c2ccc(Oc3ccccc3)cc2)nn2c1NCCc1cc([N+](=O)[O-])ccc1-2 [Compound 70, 8-Nitro-2-(4-phenoxyphenyl)-5,6-dihydro-4H-benzo[f]pyrazolo[1,5-a][1,3]diazepine-3-carboxamide] | 19 nM
C=CC(=O)Nc1ccc2c(c1)-n1nc(-c3ccc(Oc4ccccc4)cc3)c(C(N)=O)c1NC2 [Compound 69, 8-Acrylamido-2-(4-phenoxyphenyl)-4,5-dihydropyrazolo[1,5-a]quinazoline-3-carboxamide] | 7.8 nM
CC(C)(C)OC(=O)N1CCC(C2CCNc3c(C(N)=O)c(-c4ccc(Oc5ccccc5)cc4)nn32)CC1 (centres unmarked) [Compound 25, 7-(1-(Tert-butoxycarbonyl)piperidin-4-yl)-2-(4-phenoxyphenyl)-4,5,6,7-tetrahydropyrazolo[1,5-a]pyrimidine-3-carboxamide] | 3100 nM
NC(=O)c1c(-c2ccc(Oc3ccccc3)cc2)nn2c1NCC21CCN(Cc2ccccc2)CC1 [Compound 38, 1′-Benzyl-6-(4-phenoxyphenyl)-1,2-dihydrospiro[imidazo[1,2-b]pyrazole-3,4′-piperidine]-7-carboxamide] | 490 nM
CC#CC(=O)N1CCC(C2CCNc3c(C(N)=O)c(-c4ccc(Oc5ccc(F)cc5F)cc4)nn32)CC1 (centres unmarked) [Compound 179, 7-(1-(But-2-ynoyl)piperidin-4-yl)-2-(4-(2,4-difluorophenoxy)phenyl)-4,5,6,7-tetrahydropyrazolo[1,5-a]pyrimidine-3-carboxamide] | 48 nM
N#CCC(=O)N1CCC([C@@H]2CCNc3c(C(N)=O)c(-c4ccc(Oc5ccccc5)cc4)nn32)CC1 [Compound 180, (S)-7-(1-(2-Cyanoacetyl)piperidin-4-yl)-2-(4-phenoxyphenyl)-4,5,6,7-tetrahydropyrazolo[1,5-a]pyrimidine-3-carboxamide] | 87 nM
NC(=O)c1c(-c2ccc(Oc3ccccc3)cc2)nn2c1[nH]c(=O)c1cc([N+](=O)[O-])ccc12 [Compound 76, 7-Nitro-5-oxo-2-(4-phenoxyphenyl)-4,5-dihydropyrazolo[1,5-a]quinazoline-3-carboxamide] | 5500 nM
NC(=O)c1c(-c2ccc(Oc3ccccc3)cc2)nn2c1[nH]c1cc([N+](=O)[O-])ccc12 [Compound 128, 6-nitro-2-(4-phenoxyphenyl)-4H-benzo[4,5]imidazo[1,2-b]pyrazole-3-carboxamide] | 930 nM
C=CC(=O)N1CC(C2CCNc3c(C(N)=O)c(-c4ccc(OCc5ccccc5)cc4)nn32)C1 (centres unmarked) [Compound 104, 7-(1-acryloylazetidin-3-yl)-2-(4-(benzyloxy)phenyl)-4,5,6,7-tetrahydropyrazolo[1,5-a]pyrimidine-3-carboxamide] | 2.6 nM
NC(=O)c1c(-c2ccc(Oc3ccccc3)cc2)nn2c1NCCC2c1cc(N)ccc1Cl (centres unmarked) [Compound 95, 7-(5-amino-2-chlorophenyl)-2-(4-phenoxyphenyl)-4,5,6,7-tetrahydropyrazolo[1,5-a]pyrimidine-3-carboxamide] | 470 nM
NC(=O)c1c(-c2ccc(Oc3ccccc3)cc2)nn2c1NCCC2C1CCNCC1 (centres unmarked) [Compound 26, 7-(Piperidin-4-yl)-2-(4-phenoxyphenyl)-4,5,6,7-tetrahydropyrazolo [1,5-a]pyrimidine-3-carboxamide trifluoroacetate] | 1700 nM
C=CC(=O)N1CCc2[nH]c3c(C(N)=O)c(-c4ccc(OCC5CC5)cc4)nn3c2C1 [Compound 127, 7-acryloyl-2-(4-(cyclopropylmethoxy)phenyl)-5,6,7,8-tetrahydro-4H-pyrazolo[5′,1′:2,3]imidazo[4,5-c]pyridine-3-carboxamide] | 300 nM
